Source: patent US8835476B2, “Synthesis of novel antimicrobials” (priority 2005, dated 2014)
In brackets after ≈: the same amount, converted by molar mass. Where two headings read alike, the source gives them in different places.

Experiments:
Format in all cases: cell-based
B. cepacia ATCC 25416 = assay: Broth microdilution MIC, ATCC strains; conditions: Burkholderia cepacia, ATCC25416; B. cepacia ATCC 25416; read-out: MIC (growth inhibition, microdilution method)
Excerpt: (§1) All clinical isolates tested were from The North American Urinary Tract Infection Collaborative Alliance (NAUTICA) which is a UTI surveillance study involving 40 medical centres (30 from the US and 10 from Canada). Each centre submitted up to 50 consecutive outpatient midstream urine isolates. All isolates were deemed significant urinary tract pathogens by individual laboratory criteria and identified to the species level by each laboratory's existing protocol. Isolates were transported to the coordinating laboratory (Health Sciences Centre, Winnipeg, Canada) on charcoal swabs. Only one isolate per patient was accepted. Upon receipt, isolates were cultured by the coordinating laboratory, stocked in skim milk, and stored at −80° C. awaiting reference antibiotic susceptibility testing. Elementary demographic information was also compiled for each isolate. Isolates were selected randomly from the above pool to represent 18 different species of Enterobacteriaceae and non-Enterobacteriaceae. An average of 5 strains of each species were tested for a total of 93 organisms. In addition, 23 reference (ATCC) [both gram negative and gram positive] strains were tested.
(§2) Susceptibilities to the compounds were determined using the National Committee for Clinical Laboratory Standards (NCCLS) M7-A6 broth microdilution method. […] DMSO controls were incorporated into the panel to mimic the quantity of DMSO used in dissolving some of the compounds at the higher concentrations. Each final panel well volume was 100 μl with a bacterial inoculum of 5×10^5 colony forming units (CFU)/ml. Panels were read following 16 to 20 hours of incubation at 35° C. in ambient air. The minimum inhibitory concentration (MIC) was defined as the lowest concentration of antimicrobial inhibiting visible growth. Quality control (QC) was performed using four ATCC QC organisms that were run with every batch set up to insure reproducibility.

S. marcescens ATCC 8100 = assay: Broth microdilution MIC, ATCC strains; conditions: Serratia marcescens, ATCC8100; S. marcescens ATCC 8100; read-out: MIC (growth inhibition, microdilution method)
Excerpt: as §1, §2

E. cloacae ATCC 23355 = assay: Broth microdilution MIC, ATCC strains; conditions: Enterobacter cloacae, ATCC23355; E. cloacae ATCC 23355; read-out: MIC (growth inhibition, microdilution method)
Excerpt: as §1, §2

K. pneumoniae ATCC 13883 = assay: Broth microdilution MIC, ATCC strains; conditions: Klebsiella pneumoniae, ATCC13883; K. pneumoniae ATCC 13883; read-out: MIC (growth inhibition, microdilution method)
Excerpt: as §1, §2

[1] = tested on: S. maltophilia ATCC 13637; assay: Broth microdilution MIC, ATCC strains; conditions: Stenotrophomonas maltophilia, ATCC13637; S. maltophilia ATCC 13637; read-out: MIC (growth inhibition, microdilution method)
Excerpt: as §1, §2

Pr. stuartii ATCC 33672 = assay: Broth microdilution MIC, ATCC strains; conditions: Providencia stuartii, ATCC33672; Pr. stuartii ATCC 33672; read-out: MIC (growth inhibition, microdilution method)
Excerpt: as §1, §2

S. warneri ATCC 27836 = assay: Broth microdilution MIC, ATCC strains; conditions: Staphylococcus warneri, ATCC27836; S. warneri ATCC 27836; read-out: MIC (growth inhibition, microdilution method)
Excerpt: as §1, §2

[2] = tested on: S. epidermidis ATCC 14990; assay: Broth microdilution MIC, ATCC strains; conditions: Staphylococcus epidermidis, ATCC14990; S. epidermidis ATCC 14990; read-out: MIC (growth inhibition, microdilution method)
Excerpt: as §1, §2

S. simulans ATCC 27848 = assay: Broth microdilution MIC, ATCC strains; conditions: Staphylococcus simulans, ATCC27848, read-out: MIC (growth inhibition, microdilution method)
Excerpt: as §1, §2

E. coli ATCC 25922 = assay: Broth microdilution MIC, ATCC strains; conditions: Escherichia coli, ATCC25922, E. coli ATCC 25922; read-out: MIC (growth inhibition, microdilution method)
Excerpt: as §1, §2

E. faecalis ATCC 29212 = assay: Broth microdilution MIC, ATCC strains; conditions: Enterococcus faecalis, read-out: MIC (growth inhibition, microdilution method)
Excerpt: as §1, §2

E. faecium ATCC 35667 = assay: Broth microdilution MIC, ATCC strains; conditions: Enterococcus faecium, ATCC35667, read-out: MIC (growth inhibition, microdilution method)
Excerpt: as §1, §2

[3] = tested on: S. liquefaciens ATCC 27592; assay: Broth microdilution MIC, ATCC strains; conditions: S. liquefaciens ATCC 27592; read-out: MIC (growth inhibition, microdilution method)
Excerpt: as §1, §2

A. anitratus ATCC 19606 = assay: Broth microdilution MIC, ATCC strains; conditions: Acinetobacter calcoaceticus, ATCC19606; A. anitratus ATCC 19606; read-out: MIC (growth inhibition, microdilution method)
Excerpt: as §1, §2

[4] = tested on: S. saprophyticus ATCC 15305; assay: Broth microdilution MIC, ATCC strains; conditions: Staphylococcus saprophyticus, ATCC15305; S. saprophyticus ATCC 15305; read-out: MIC (growth inhibition, microdilution method)
Excerpt: as §1, §2

MRSA ATCC 33591 = assay: Broth microdilution MIC, ATCC strains; conditions: Staphylococcus aureus; MRSA ATCC 33591; read-out: MIC (growth inhibition, microdilution method)
Excerpt: as §1, §2

S. aureus ATCC 29213 = assay: Broth microdilution MIC, ATCC strains; conditions: Staphylococcus aureus, ATCC29213, S. aureus ATCC 29213; read-out: MIC (growth inhibition, microdilution method)
Excerpt: as §1, §2

E. aerogenes ATCC 13048 = assay: Broth microdilution MIC, ATCC strains; conditions: Klebsiella aerogenes, ATCC13048; E. aerogenes ATCC 13048; read-out: MIC (growth inhibition, microdilution method)
Excerpt: as §1, §2

[5] = tested on: Ps. aeruginosa ATCC 27853; assay: Broth microdilution MIC, ATCC strains; conditions: Pseudomonas aeruginosa, ATCC27853; Ps. aeruginosa ATCC 27853; read-out: MIC (growth inhibition, microdilution method)
Excerpt: as §1, §2

K. oxytoca ATCC 49131 = assay: Broth microdilution MIC, ATCC strains; conditions: Klebsiella oxytoca, ATCC49131; K. oxytoca ATCC 49131; read-out: MIC (growth inhibition, microdilution method)
Excerpt: as §1, §2

P. mirabilis ATCC 29245 = assay: Broth microdilution MIC, ATCC strains; conditions: Proteus mirabilis, ATCC29245; P. mirabilis ATCC 29245; read-out: MIC (growth inhibition, microdilution method)
Excerpt: as §1, §2

P. vulgaris ATCC 49132 = assay: Broth microdilution MIC, ATCC strains; conditions: Proteus vulgaris, ATCC49132; P. vulgaris ATCC 49132; read-out: MIC (growth inhibition, microdilution method)
Excerpt: as §1, §2

P. rettgeri CAP = assay: Broth microdilution MIC, reference strains; conditions: Providencia rettgeri; P. rettgeri (CAP in Table 1); read-out: MIC (growth inhibition, microdilution method)
Excerpt: as §1, §2

[6] = tested on: S. liquifaciens clinical isolates; assay: Broth microdilution MIC, clinical isolate strains (NAUTICA); conditions: clinical isolates, one table line per isolate; unit assumed
Excerpt: as §1, §2

[7] = tested on: B. cepacia clinical isolates; assay: as above; conditions: clinical isolates, one table line per isolate; unit assumed
Excerpt: as §1, §2

[8] = tested on: A. baumanii clinical isolates; assay: as above; conditions: clinical isolates, one table line per isolate; unit assumed
Excerpt: as §1, §2

[9] = tested on: S. marcescens clinical isolates; assay: as above; conditions: clinical isolates, one table line per isolate; unit assumed
Excerpt: as §1, §2

[10] = tested on: C. koseril clinical isolates; assay: as above; conditions: clinical isolates, one table line per isolate; unit assumed
Excerpt: as §1, §2

[11] = tested on: S. maltophilia clinical isolates; assay: as above; conditions: clinical isolates, one table line per isolate; unit assumed
Excerpt: as §1, §2

[12] = tested on: E. aerogenes clinical isolates; assay: as above; conditions: clinical isolates, one table line per isolate; unit assumed
Excerpt: as §1, §2

[13] = tested on: M. morganii clinical isolates; assay: as above; conditions: clinical isolates, one table line per isolate; unit assumed
Excerpt: as §1, §2

[14] = tested on: E. cloacae clinical isolates; assay: as above; conditions: clinical isolates, one table line per isolate; unit assumed
Excerpt: as §1, §2

[15] = ATCC29212, E. faecalis ATCC 29212
[16] = ATCC29212, E. faecalis, ATCC number not given

Compound | MIC (B. cepacia ATCC 25416) [µg/mL] | MIC (S. marcescens ATCC 8100) [µg/mL] | MIC (E. cloacae ATCC 23355) [µg/mL] | MIC (K. pneumoniae ATCC 13883) [µg/mL] | MIC [1] [µg/mL] | MIC (Pr. stuartii ATCC 33672) [µg/mL] | MIC (S. warneri ATCC 27836) [µg/mL] | MIC [2] [µg/mL] | MIC (S. simulans ATCC 27848) [µg/mL] | MIC (E. coli ATCC 25922) [µg/mL] | MIC (E. faecalis ATCC 29212; [15]) [µg/mL] | MIC (E. faecalis ATCC 29212; [16]) [µg/mL] | MIC (E. faecium ATCC 35667) [µg/mL] | MIC [3] [µg/mL] | MIC (A. anitratus ATCC 19606) [µg/mL] | MIC [4] [µg/mL] | MIC (MRSA ATCC 33591) [µg/mL] | MIC (S. aureus ATCC 29213) [µg/mL] | MIC (E. aerogenes ATCC 13048) [µg/mL] | MIC [5] [µg/mL] | other results
Cn1nnnc1-c1cc(C(=O)O)sc1C(=O)O [DNM-113, 3-(1-Methyl-1H-tetrazol-5-yl)-thiophene-2,5-dicarboxylic acid] | 8 (≈ 31.5 µM) | 8 (≈ 31.5 µM) | 8 (≈ 31.5 µM) | 8 (≈ 31.5 µM) | 8 (≈ 31.5 µM) | 16 (≈ 62.9 µM) | 16 (≈ 62.9 µM) | 8 (≈ 31.5 µM) | 32 (≈ 126 µM) | 8 (≈ 31.5 µM) | 8 (≈ 31.5 µM) | 8 (≈ 31.5 µM) | 8 (≈ 31.5 µM) | 8 (≈ 31.5 µM) | 8 (≈ 31.5 µM) | 8 (≈ 31.5 µM) | 64 (≈ 252 µM) | 32 (≈ 126 µM) | 8 (≈ 31.5 µM) | 8 (≈ 31.5 µM) | MIC (K. oxytoca ATCC 49131): 8 µg/mL (≈ 31.5 µM); MIC (P. mirabilis ATCC 29245): 16 µg/mL (≈ 62.9 µM); MIC (P. vulgaris ATCC 49132): 16 µg/mL (≈ 62.9 µM); MIC (P. rettgeri CAP): 8 µg/mL (≈ 31.5 µM); MIC, S. LIQUEFACIENS [6]: 8 µg/mL (≈ 31.5 µM); MIC, B. CEPACIA [7]: 8 µg/mL (≈ 31.5 µM); MIC, A. BAUMANII [8]: 8 µg/mL (≈ 31.5 µM); MIC, S. MARCESCENS [9]: 8 µg/mL (≈ 31.5 µM); MIC, C. KOSERI [10]: 8 µg/mL (≈ 31.5 µM); MIC, S. MALTOPHILIA [11]: 8 µg/mL (≈ 31.5 µM); MIC, E. AEROGENES [12]: 8 µg/mL (≈ 31.5 µM); MIC, M. MORGANII [13]: 8 µg/mL (≈ 31.5 µM)
COC(=O)c1cc(-c2nnnn2C)c(C(=O)OC)s1 [DNM-115, 3-(1-Methyl-1H-tetrazol-5-yl)-thiophene-2,5-dicarboxylic acid dimethyl ester] | 8 (≈ 28.3 µM) | 8 (≈ 28.3 µM) | > 16 | 8 (≈ 28.3 µM) | 8 (≈ 28.3 µM) | > 16 | > 16 | 8 (≈ 28.3 µM) | > 16 | 8 (≈ 28.3 µM) | 8 (≈ 28.3 µM) | 8 (≈ 28.3 µM) | 8 (≈ 28.3 µM) | 8 (≈ 28.3 µM) | 8 (≈ 28.3 µM) | 8 (≈ 28.3 µM) | > 16 | > 16 | 8 (≈ 28.3 µM) | 8 (≈ 28.3 µM) | MIC (K. oxytoca ATCC 49131): 8 µg/mL (≈ 28.3 µM); MIC (P. mirabilis ATCC 29245): 16 µg/mL (≈ 56.7 µM); MIC (P. vulgaris ATCC 49132): 16 µg/mL (≈ 56.7 µM); MIC (P. rettgeri CAP): 16 µg/mL (≈ 56.7 µM); MIC, B. CEPACIA [7]: 8 µg/mL (≈ 28.3 µM); MIC, A. BAUMANII [8]: 8 µg/mL (≈ 28.3 µM); MIC, S. MALTOPHILIA [11]: 8 µg/mL (≈ 28.3 µM); MIC, E. CLOACAE [14]: > 16 µg/mL
